Series [1] has as its target NS2B−NS3 interactions (NLuc-NS2B49−66 / GST-CLuc-NS3) (Dengue virus type 2, UniProt P29990). Nature of the series: Split luciferase complementation. The class given is binding.
The target in series [2] is T1, NS2B−NS3 protease (His-tagged NS2B / DENV2 NS3-MBP fusion protein) (Dengue virus type 2, UniProt P29990).
T1 sequence (P29990 1476-1653 limits assumed): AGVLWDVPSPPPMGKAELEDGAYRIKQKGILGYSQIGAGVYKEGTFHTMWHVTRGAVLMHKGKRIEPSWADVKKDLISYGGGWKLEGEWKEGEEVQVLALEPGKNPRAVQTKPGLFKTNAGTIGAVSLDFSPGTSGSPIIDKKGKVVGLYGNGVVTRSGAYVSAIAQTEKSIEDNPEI
Nature of the series: NS2B−NS3 protease inhibition assay with FRET substrate. It counts as biochemical.

For series [3], the system named is ZIKV PRVABC59. The series is described as follows: PFU viral plaque reduction assay in A549 cells. The class given is cell-based. As to conditions: Zika virus, A549, read-out: EC50 (anti-ZIKV). (Plaques are areas of infected cells; plaque reduction assays count them against a control.)
Series [4] has as its system 3D mini-forebrain organoid. The series is described as follows: Toxicity to 3D mini-forebrain organoid. It counts as cell-based, human. The following applies: Fig. S2; organoids fell apart and lost clear boundary.
For series [5] the following is noted: cited from earlier work.
The mark [6] stands for this setting: IC50-SLC (NS2B–NS3 interaction), split luciferase complementation, n = 3.

pEC50, pIC50: −log10 of the molar value. A value given as a limit tells only on which side of the number the result lay.

As a reminder, the pIC50 is the IC50 on a negative log10 scale, so that one unit is a factor of ten. A word on the pEC50: it is the negative decadic logarithm of the EC50, by convention in mol/L.

Chain of NS2B−NS3 interactions (NLuc-NS2B49−66 / GST-CLuc-NS3) (P29990 1476-1660): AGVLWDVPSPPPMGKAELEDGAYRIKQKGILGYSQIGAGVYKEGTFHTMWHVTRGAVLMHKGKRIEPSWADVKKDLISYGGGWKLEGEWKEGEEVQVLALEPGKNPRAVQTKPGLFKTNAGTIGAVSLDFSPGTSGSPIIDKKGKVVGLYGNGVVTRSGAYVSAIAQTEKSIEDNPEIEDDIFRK

Consider `O=C1OC2(c3ccccc31)c1ccc(O)c(Cl)c1Oc1c2ccc(O)c1Cl` [JMX0892, 4′,5′-Dichloro-3′,6′-dihydroxy-3H-spiro[isobenzofuran-1,9′-xanthen]-3-one], for which the pIC50 in series [1] (IC50-SLC) was approximately 4.30; in series [1] (setting [6]) it was 4.30; in series [2], less than 4.22. For the same compound, in series [3], the pEC50 was less than 4.82.

On to `O=C1OC2(c3ccccc31)c1ccc(O)c(Br)c1Oc1c2ccc(O)c1Br` [JMX0893, 4′,5′-dibromo-3′,6′-dihydroxy-3H-spiro[isobenzofuran-1,9′-xanthen]-3-one], for which the pIC50 in series [1] (setting [6]) is 4.80; in series [2], less than 4.22. The pEC50 in series [3] is less than 4.82.

As to `O=C1OC2(c3cc(Cl)c(O)cc3Oc3cc(O)c(Cl)cc32)c2ccccc21` [JMX0897, 2′,7′-Dichloro-3′,6′-dihydroxy-3H-spiro[isobenzofuran-1,9′-xanthen]-3-one], the pIC50 in series [1] (IC50-SLC) is approximately 4.30; in series [1] (setting [6]) it was 4.32; in series [2] it was 4.64. Besides, the negative logarithm of the EC50 (pEC50) in series [3] is less than 4.82.

For the compound `O=C1OC2(c3cc(I)c(O)c(I)c3Oc3c2cc(I)c(O)c3I)c2c(Cl)c(Cl)c(Cl)c(Cl)c21` [JMX0902, Sodium 4,5,6,7-tetrachloro-2′,4′,5′,7′-tetraiodo-3-oxo-3H-spiro[isobenzofuran-1,9′-xanthene]-3′,6′-bis(olate)], the values for the negative logarithm of the IC50 (pIC50) in series [1] (setting [6]) and in series [2] were 6.37 and 5.59, respectively. Also, in series [3], the negative logarithm of the EC50 (pEC50) was 6.52.

In the case of `O=C1OC2(c3ccccc31)c1ccc(O)c(I)c1Oc1c2ccc(O)c1I` [JMX0903, Sodium 4′,5′-diiodo-3-oxo-3H-spiro[isobenzofuran-1,9′-xanthene]-3′,6′-bis(olate)], the pIC50 in series [1] (setting [6]) is 4.82; in series [2], 4.22. Moreover, the negative-log EC50 (pEC50) in series [3] is less than 4.82.

With `O=C1OC2(c3ccccc31)c1cc(Br)c(O)c(Br)c1Oc1c2cc(Br)c(O)c1Br` [JMX0911, 2′,4′,5′,7′-tetrabromo-3′,6′-dihydroxy-3H-spiro[isobenzofuran-1,9′-xanthen]-3-one], the pIC50 in series [1] (setting [6]) is 5.47. In addition, in series [3], the pEC50 is less than 4.82.

In the case of `O=C1OC2(c3ccc(O)cc3Oc3cc(O)ccc32)c2ccc(NC(=S)NCCS)cc21` [JMX0912, 1-(3′,6′-Dihydroxy-3-oxo-3H-spiro[isobenzofuran-1,9′-xanthen]-5-yl)-3-(2-mercaptoethyl)thiourea], the negative-log IC50 (pIC50) in series [1] (IC50-SLC) is less than 4.30; in series [1] (setting [6]), less than 4.00; in series [2], 4.06. Also, the pEC50 in series [3] was less than 4.82.

As for `O=C1OC2(c3ccc(O)cc3Oc3cc(O)ccc32)c2ccccc21` [JMX0915, 3′,6′-Dihydroxy-3H-spiro[isobenzofuran-1,9′-xanthen]-3-one], the results for the pIC50 in series [1] (IC50-SLC), in series [1] (setting [6]) and in series [2] were less than 4.30, less than 4.00 and less than 4.00, respectively. In addition, the negative logarithm of the EC50 (pEC50) in series [3] is less than 4.82.

For the compound `O=C(O)c1ccc2c(c1)C(=O)OC21c2ccc(O)cc2Oc2cc(O)ccc21` [JMX0920, 3′,6′-Dihydroxy-3-oxo-3H-spiro[isobenzofuran-1,9′-xanthene]-5-carboxylic acid], the pIC50 is less than 4.30 in series [1] (IC50-SLC), 4.28 in series [1] (setting [6]) and less than 4.00 in series [2]. For the same compound, the pEC50 in series [3] is less than 4.82.

For `Oc1cccc(-c2c3nc(c(-c4cccc(O)c4)c4ccc([nH]4)c(-c4cccc(O)c4)c4nc(c(-c5cccc(O)c5)c5ccc2[nH]5)CC4)C=C3)c1` [temoporfin], the “toxicity to 3D organoids (morphology)” value in series [4] was “significant toxicity”. In addition, the cellular cytotoxicity result in series [5] is reported as “moderate cellular cytotoxicity”.

Source of the values: PMC9279632 (Acta Pharmaceutica Sinica. B, 2021).
